Measurements reported in PubChem BioAssay AID1259411 (Chemical Carcinogenesis Research Information System (CCRIS), 2018).
The source made the active and inactive calls. How the calls were made is not given here.

System: rodent carcinogenicity bioassays, tumor incidence
Assay: CCRIS carcinogenicity studies
How it was run: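 NCI-built, expert-reviewed records of carcinogenicity and related test outcomes (mutagenicity, tumor promotion/inhibition) compiled from published and report sources, historical span 1985-2011, not updated.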

Structure (SMILES): CC[C@H](C)[C@H]1O[C@]2(C=C[C@@H]1C)C[C@@H]1C[C@@H](C/C=C(\C)[C@@H](O[C@H]3C[C@H](OC)[C@@H](O[C@H]4C[C@H](OC)[C@@H](NC)[C@H](C)O4)[C@H](C)O3)[C@@H](C)/C=C/C=C3\CO[C@@H]4[C@H](O)C(C)=C[C@@H](C(=O)O1)[C@]34O)O2
- carcinogen call (Species: Mouse, Strain/Sex: Strain not specified/Female (50/Group), Route: Oral, Dose: 0, 0.5, 2.5, 12.5 (lowered to 7.5 at wk 48) mg/kg/day in the diet for 79 wk, study duration 79 wk, Dose: 0, 0.5, 2.5, 12.5 (lowered to 7.5 at wk 48) mg/kg/day in the diet for 79 wk, study duration 79 wk): inactive; negative
- carcinogen call (Species: Mouse, Strain/Sex: Strain not specified/Male (50/Group), Route: Oral, Dose: 0, 0.5, 2.5, 12.5 (lowered to 7.5 at wk 9 and to 5 at wk 31) mg/kg/day in the diet for 79 wk, study duration 79 wk, Dose: 0, 0.5, 2.5, 12.5 (lowered to 7.5 at wk 9 and to 5 at wk 31) mg/kg/day in the diet for 79 wk, study duration 79 wk): inactive; negative
- carcinogen call (Species: Rat, Strain/Sex: Strain not specified/Female (65/Group), Route: Oral, Dose: 0, 0.25, 1, 5 (lowered to 2.5 at wk 10) mg/kg/day in the diet for 105 wk, study duration 105 wk, Dose: 0, 0.25, 1, 5 (lowered to 2.5 at wk 10) mg/kg/day in the diet for 105 wk, study duration 105 wk): inactive; negative
- carcinogen call (Species: Rat, Strain/Sex: Strain not specified/Male (65/Group), Route: Oral, Dose: 0, 0.25, 1, 5 (lowered to 2.5 at wk 6) mg/kg/day in the diet for 105 wk, study duration 105 wk, Dose: 0, 0.25, 1, 5 (lowered to 2.5 at wk 6) mg/kg/day in the diet for 105 wk, study duration 105 wk): inactive; negative

Structure (SMILES): C/[N+]([O-])=N/CO[C@@H]1O[C@H](CO)[C@@H](O)[C@H](O)[C@H]1O
- carcinogen call (Species: GUINEA PIG, Route: ORAL, Dose: 0, 5% IN DIET OF CYCAD MEAL, 2-3 5-D PERIODS, Tumor Site: Type of Lesion: LIVER: HEPATOCELLULAR CARCINOMA, BILE DUCT): active; positive
- carcinogen call (Species: GUINEA PIG, Route: ORAL, Tumor Site: Type of Lesion: LIVER, BILE DUCT): active; positive
- carcinogen call (Species: HAMSTER, Route: GAVAGE, Dose: 0.1, 0.15 MG/G BW, SINGLE DOSE, Tumor Site: Type of Lesion: LIVER: HEPATOCELLULAR ADENOMA, BILE DUCT: CARCINOMA, HEMANGIOENDOTHELIAL SARCOMA, LUNG: ADENOMA, INTESTINES, KIDNEY: CAR, Tumor Site: Type of Lesion: LIVER: HEPATOCELLULAR ADENOMA, BILE DUCT: CARCINOMA, HEMANGIOENDOTHELIAL SARCOMA, LUNG: ADENOMA, INTESTINES, KIDNEY: CAR): active; positive
- carcinogen call (Species: HAMSTER, Route: ORAL, Tumor Site: Type of Lesion: LIVER, LUNG, INTESTINES, KIDNEY, Tumor Site: Type of Lesion: LIVER, LUNG, INTESTINES, KIDNEY): active; positive
- carcinogen call (Species: HAMSTER, Route: SUBCUTANEOUS, Tumor Site: Type of Lesion: LIVER): active; positive
- carcinogen call (Species: MONKEY, Strain/Sex: AFRICAN GREEN, Route: ORAL, Dose: 0, 3% (50-75 MG/KG) IN DIET OF CRUDE CYCAD MEAL, 5 D/WK FOR UP TO 11 YR, Tumor Site: Type of Lesion: UNSPECIFIED: NEOPLASM): active; positive
- carcinogen call (Species: MONKEY, Strain/Sex: CYNOMOLGUS, Route: ORAL, Dose: 0, 3% (50-75 MG/KG) IN DIET OF CRUDE CYCAD MEAL, 5 D/WK FOR UP TO 11 YR, Tumor Site: Type of Lesion: UNSPECIFIED: NEOPLASM): active; positive
- carcinogen call (Species: MONKEY, Strain/Sex: RHESUS, Route: ORAL, Dose: 0, 3% (50-75 MG/KG) IN DIET OF CRUDE CYCAD MEAL, 5 D/WK FOR UP TO 11 YR, Tumor Site: Type of Lesion: UNSPECIFIED: NEOPLASM): active; positive
- carcinogen call (Species: MOUSE, Route: SUBCUTANEOUS, Tumor Site: Type of Lesion: LIVER, LUNG): active; positive
- carcinogen call (Species: RABBIT, Route: ORAL, Tumor Site: Type of Lesion: LIVER): active; positive
- carcinogen call (Species: RAT, Route: ORAL, Tumor Site: Type of Lesion: INTESTINES, KIDNEY, LIVER, Tumor Site: Type of Lesion: INTESTINES, KIDNEY, LIVER): active; positive
- carcinogen call (Species: RAT, Route: SUBCUTANEOUS, Tumor Site: Type of Lesion: KIDNEY, INTESTINES, LIVER, Tumor Site: Type of Lesion: KIDNEY, INTESTINES, LIVER): active; positive
- carcinogen call (Species: RAT, Strain/Sex: SPRAGUE-DAWLEY/MALE,FEMALE, Route: GAVAGE, Dose: 3 ML/KG BW CYCAD EXTRACT, 1/WK FOR 12 WK, Tumor Site: Type of Lesion: INTESTINES): active; positive
- carcinogen call (Species: RAT, Strain/Sex: SPRAGUE-DAWLEY/MALE,FEMALE, Route: RECTAL, Dose: 50 MG/KG BW INTO INTESTINE 1/WK FOR 12 WK, Tumor Site: Type of Lesion: INTESTINES): active; positive
- carcinogen call (Species: RAT, Strain/Sex: SPRAGUE-DAWLEY/MALE, Route: GAVAGE, Dose: 80, 250 MG/KG, SINGLE DOSE, Tumor Site: Type of Lesion: INTESTINES (COLON OR RECTUM), INTESTINES (JEJUNUM OR ILEUM), DUODENUM, Tumor Site: Type of Lesion: INTESTINES (COLON OR RECTUM), INTESTINES (JEJUNUM OR ILEUM), DUODENUM): active; positive
- carcinogen call (Species: RAT, Strain/Sex: SPRAGUE-DAWLEY/MALE, Route: GAVAGE, Dose: 80 MG/KG, 1/WK FOR 15 WK, Tumor Site: Type of Lesion: INTESTINES (COLON OR RECTUM), INTESTINES (JEJUNUM OR ILEUM)): active; positive

Structure (SMILES): NC(N)=Nc1nc(CSCCN=CNS(=O)(=O)c2ccc(Br)cc2)cs1
- carcinogen call (Species: MOUSE, Strain/Sex: CD-1/FEMALE, Route: ORAL, Dose: 0, 50, 200, 500 MG/KG FOR 18 MO (STUDY DURATION: 18 MO), Dose: 0, 50, 200, 500 MG/KG FOR 18 MO (STUDY DURATION: 18 MO)): inactive; negative
- carcinogen call (Species: MOUSE, Strain/Sex: CD-1/MALE, Route: ORAL, Dose: 0, 50, 200, 500 MG/KG FOR 18 MO (STUDY DURATION: 18 MO), Dose: 0, 50, 200, 500 MG/KG FOR 18 MO (STUDY DURATION: 18 MO)): inactive; negative
- carcinogen call (Species: RAT, Strain/Sex: SPRAGUE-DAWLEY/FEMALE, Route: ORAL, Dose: 0, 50, 200, 500 MG/KG FOR 13 MO THEN 0, 50, 150, 300, 500 MG/KG FOR DURATION OF STUDY (STUDY DURATION: 24 MO), Dose: 0, 50, 200, 500 MG/KG FOR 13 MO THEN 0, 50, 150, 300, 500 MG/KG FOR DURATION OF STUDY (STUDY DURATION: 24 MO)): inactive; negative
- carcinogen call (Species: RAT, Strain/Sex: SPRAGUE-DAWLEY/FEMALE, Route: ORAL, Dose: INITIALLY: 0, 50, 200, 500 MG/KG BW, THEN 0, 50, 150, 300, 500 (200 MG/KG DOSE LOWERED TO 150 MG/KG AFTER 13 MONTHS AND, Dose: INITIALLY: 0, 50, 200, 500 MG/KG BW, THEN 0, 50, 150, 300, 500 (200 MG/KG DOSE LOWERED TO 150 MG/KG AFTER 13 MONTHS AND): inactive; negative
- carcinogen call (Species: RAT, Strain/Sex: SPRAGUE-DAWLEY/MALE, Route: ORAL, Dose: 0, 50, 200, 500 MG/KG FOR 13 MO THEN 0, 50, 150, 300, 500 MG/KG FOR DURATION OF STUDY (STUDY DURATION: 24 MO), Dose: 0, 50, 200, 500 MG/KG FOR 13 MO THEN 0, 50, 150, 300, 500 MG/KG FOR DURATION OF STUDY (STUDY DURATION: 24 MO)): inactive; negative
- carcinogen call (Species: RAT, Strain/Sex: SPRAGUE-DAWLEY/MALE, Route: ORAL, Dose: INITIALLY: 0, 50, 200, 500 MG/KG BW, THEN 0, 50, 150, 300, 500 (200 MG/KG DOSE LOWERED TO 150 MG/KG AFTER 13 MONTHS AND, Dose: INITIALLY: 0, 50, 200, 500 MG/KG BW, THEN 0, 50, 150, 300, 500 (200 MG/KG DOSE LOWERED TO 150 MG/KG AFTER 13 MONTHS AND): inactive; negative

Structure (SMILES): [Cl][Fe]([Cl])[Cl]
- carcinogen call (Species: RAT, Strain/Sex: F344/FEMALE, Route: ORAL, Dose: 0, 0.25, 0.5% IN DRINKING WATER FOR 104 WK (STUDY DURATION: 112 WK), Dose: 0, 0.25, 0.5% IN DRINKING WATER FOR 104 WK (STUDY DURATION: 112 WK)): inactive; negative
- carcinogen call (Species: RAT, Strain/Sex: F344/MALE, Route: ORAL, Dose: 0, 0.25, 0.5% IN DRINKING WATER FOR 104 WK (STUDY DURATION: 112 WK), Dose: 0, 0.25, 0.5% IN DRINKING WATER FOR 104 WK (STUDY DURATION: 112 WK)): inactive; negative
